In paper PMC11697113, “The Hsc70 system maintains the synaptic SNARE protein SNAP-25 in an assembly-competent state and delays its aggregation [drawing 1]” (The Journal of Biological Chemistry, 2024):

Key:
SNAP-25 [1] = assay: SNAP-25 aggregation kinetics by optical density; type: biochemical; settings: SNAP-25 (CS mutant) 50 μM alone, 37 °C, shaking 300 rpm, OD 360 nm, 20 mM phosphate buffer pH 7.4, 100 μM MgCl2, 100 mM KCl
Method: To test our hypothesis that Hsc70 inhibits SNAP-25 aggregation, we monitored the aggregation kinetics of recombinantly expressed SNAP-25 in the absence and presence of Hsc70 by following optical density at 360 nm (Fig. 2). […] This lag time was elongated to ∼65 h in the presence of Hsc70. In neurons, Hsc70 works in collaboration with its co-chaperone CSPα. […] (Fig. S2A). Apg2 is a member of the Hsp110 family, which is known to suppress protein aggregation ([36]). […] (Fig. S2B).
Figure 2 Hsc70 delays the aggregation of SNAP-25. Aggregation kinetics of SNAP-25 (50 μM) at 37 °C. Optical density of SNAP-25 was recorded at 360 nm in the absence (black) and in the presence of Hsc70 (5 μM, red), and Hsc70+CSPαJ (5 μM each, blue).
Aggregation of SNAP-25 at 50 μM was followed by measuring the A360 in a 96-well plate using a BioTek plate reader (BioTek), at 37 °C with shaking at 300 rpm, in the absence and presence of Hsc70 and CSPαJ at 5 μM each, and Apg2 at 0.5 μM. The aggregation buffer included 20 mM phosphate buffer pH 7.4, 100 μM MgCl2, and 100 mM KCl, and an ATP-experiment was carried out using regeneration system (5 mM 2-phosphoenolpyruvate, 0.05 mg/ml pyruvate kinase, and 5 mM ATP), as described previously ([51]).
Figure SI 2. Apg2 enhances the effect of Hsc70 on SNAP-25. (A) Aggregation kinetics of SNAP-25 (50 μM) at 37 °C. OD600 of SNAP-25 was recorded in the absence (black) and in the presence of Hsc70, Hsc70+CSPa-J (blue) and Hsc70+CSPa-J+Apg2 (turquoise). […]
concentrations are SNAP-25 (50 μM), Hsc70 (5 μM), CSPa-J (5 μM) and Apg2 (0.5 μM).
(B) Aggregation kinetics of SNAP-25 (50 μM) at 37 °C. OD600 of SNAP-25 was recorded in the absence (black) and in the presence of Apg2 (blue). […]

Hsc70 = biological target: T1, Hsc70 (Homo sapiens, UniProt P11142); assay: Native PAGE / Western blot of SNAP-25-Hsc70 complex; type: binding; settings: SNAP-25 10 μM, Hsc70 2 μM, anti-Hsc70 and anti-His Western blot
T1 construct: 6X His-tag (TEV-cleavable) (cleaved yes); made in house; host or cells: E. coli Rosetta (DE3)
T1 sequence (P11142 whole entry): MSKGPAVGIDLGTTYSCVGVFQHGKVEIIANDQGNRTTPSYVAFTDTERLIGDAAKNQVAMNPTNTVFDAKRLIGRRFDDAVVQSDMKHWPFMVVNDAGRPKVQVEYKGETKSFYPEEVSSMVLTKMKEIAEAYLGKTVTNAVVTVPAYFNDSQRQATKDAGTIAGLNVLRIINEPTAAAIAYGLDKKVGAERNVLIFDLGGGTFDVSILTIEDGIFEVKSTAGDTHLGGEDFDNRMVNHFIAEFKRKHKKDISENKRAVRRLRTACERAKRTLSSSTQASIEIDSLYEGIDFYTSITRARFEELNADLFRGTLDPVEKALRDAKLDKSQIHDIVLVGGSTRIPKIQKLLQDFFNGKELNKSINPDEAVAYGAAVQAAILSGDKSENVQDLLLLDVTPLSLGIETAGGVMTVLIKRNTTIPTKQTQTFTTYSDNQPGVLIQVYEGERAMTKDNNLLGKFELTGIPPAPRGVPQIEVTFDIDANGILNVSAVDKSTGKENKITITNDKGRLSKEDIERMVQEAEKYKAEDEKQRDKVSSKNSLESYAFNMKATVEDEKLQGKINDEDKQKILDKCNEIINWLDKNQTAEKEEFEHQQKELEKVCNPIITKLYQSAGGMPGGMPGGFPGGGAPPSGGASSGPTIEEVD
Method: Figure 3 Hsc70 forms complexes with SNAP-25.A, native PAGE of SNAP-25 (10 μM) in the presence and absence of Hsc70 (2 μM). The difference in signal intensity of His-SNAP25 probed with antibody is likely due to altered epitope exposure upon formation of the SNAP-25-Hsc70 complex. B, binding of SNAP-25 (black), SNAP-25 SNN (SNNFR, orange), and SNC (SNCFR, green)) fragments to Hsc70 by competition followed by fluorescence anisotropy. Increasing concentrations of the competitors were added to a complex of Hsc70 (5 μM) and FITC-p5 peptide (50 nM). Error bars represent SDs from three independent experiments.
Precast native PAGE gels (Bio-Rad, 4–20%) were used to separate proteins based on their conformation and charge. SNAP-25 (10 μM), Hsc70 (2 μM) and a mix of both samples were mixed with a nondenaturing loading buffer and directly loaded onto the gel without heating. Electrophoresis was carried out in Tris-glycine running buffer at 180V for approximately 1 h until the dye front reached the bottom of the gel. Gels were stained with Coomassie Brilliant Blue R-250 (Sigma-Aldrich) and destained in a methanol-acetic acid solution until clear bands were visible.

[2] = system: SNARE complex with syntaxin and synaptobrevin; assay: SDS-resistant SNARE complex formation (SDS-PAGE); type: biochemical; settings: without Hsc70, mixed with syntaxin and synaptobrevin, 1 M NaCl, 4 °C
Method: We took aliquots of SNAP-25 at different time points of the aggregation reaction (at 0 h, in lag phase and at 64 h in the log or saturation phase, Fig. 2A) and mixed them with the SNARE motifs of syntaxin and synaptobrevin to allow the formation of the SNARE complex.
Figure 6 Hsc70 facilitates incorporation of SNAP-25 into the SNARE complex in vitro. SDS-PAGE of SNAP-25 taken from the aggregation reactions (Fig. 2) at 0 h and 64 h after the initiation, without (left) and with Hsc70 (right), and mixed with syntaxin and synaptobrevin for the time indicated below each SDS-PAGE. SNAP-25 is expressed and purified from E. coli; a minor amount of the bacterial Hsp70 homolog DnaK (∼70 kDa) may copurify with SNAP-25, explaining the presence of higher molecular weight bands, with its proteolysis potentially occurring during ∼64-h SNAP-25 aggregation reactions. For synaptobrevin, we attribute the higher molecular weight bands to incomplete cleavage of GST-tagged synaptobrevin.
The SNARE motifs were mixed in an equimolar ratio in the following order: synaptobrevin-2 (29–93), syntaxin-1A (191–253), and SNAP-25 taken from the aggregation reaction, in the presence of 1 M NaCl. The assembly reaction was incubated at 4 °C overnight while rotating. The SNARE motifs were concentrated using a 30-kDa molecular weight cutoff Amicon centrifugation filters and run on 4 to 20% gradient SDS-PAGE.

SNAP-25 [3] = assay: Far-UV CD; type: physicochemical; settings: far-UV CD 200–250 nm, 22 °C (Fig. S1)
Method: SNAP-25 has four native cysteines that are palmitoylated upon interaction with the membrane. […] For all of our studies, the SNAP-25 CS mutant was used unless otherwise mentioned.
The far-UV CD spectra (200–250 nm) were recorded on a Jasco J-1500 Circular Dichroism Spectrophotometer at 22 °C. The SNAP-25 WT, SNAP-25, and mixture of SNAP-25 and Hsc70 were taken in a 1 mm path length quartz cuvette. Figures show the average of ten scans where the buffer baselines were subtracted. Data were plotted using software using the Origin (Pro) program (OriginLab Corp).

SNAP-25 [4] = settings: also Fig. S1; cited from earlier work
Description: SNAP-25 has four native cysteines that are palmitoylated upon interaction with the membrane. […] For all of our studies, the SNAP-25 CS mutant was used unless otherwise mentioned. We assessed formation of the Hsc70-SNAP-25 complex by CD and found no significant conformational ...

synaptosomal-associated 25 kDa protein [SNAP-25]
lag phase of SNAP-25 aggregation (SNAP-25 [1]): ~38 h | complex formation of His-SNAP-25 with Hsc70 (Hsc70): a complex can be seen | SNARE complex formation by SNAP-25 taken at 0 h of aggregation [2]: forms SDS-resistant SNARE complexes | SNARE complex formation by SNAP-25 taken at 64 h of aggregation [2]: unable to form the SNARE complexes | conformational change upon Hsc70-SNAP-25 interaction (SNAP-25 [3]): no significant conformational change | secondary structure by CD (SNAP-25 [4]): disordered with nascent helical tendencies
